Test results reported in patent US8518890B2, “Remedies for sex hormone dependent disease” (Takeda Pharmaceutical Company Limited, priority 2002, dated 2013).

Assays:
Assay in all cases: Effect on cell growth in the presence of androgen (cell count)
Type in all cases: cell-based
[1] = system: LNCaP-hr cells (highly androgen sensitive cell line); conditions: LNCaP-hr (cultured 60 weeks in androgen-free broth), 0.01 to 10 ng/mL testosterone, cells counted 3 days after addition, FIG. 1
[2] = system: LNCaP-FGC cells; conditions: 0.01 to 10 ng/mL testosterone, cells counted 3 days after addition, FIG. 1
Description: (§1) (Method) LNCaP-hr (cultured for 60 weeks in culture broth free of androgen) and LNCaP-FGC cells were plated on a 24 well plate at 40000 cells/mL/well, 0.01 to 10 ng/mL of testosterone was added the next day, and the cells were counted 3 days after the addition. In addition, MDA PCa 2b-hr (cultured for 61 weeks in culture broth free of androgen) and MDA PCa 2b cells were plated on a 24 well plate at 40000 cells/mL/well, 0.1 to 100 ng/mL of testosterone was added the next day, and the cells were counted 4 days after the addition. (Results) The growth of LNCaP-FGC and MDA PCa 2b was promoted by testosterone [FIGS. 1 and 2]. In contrast, the growth of LNCaP-hr and MDA PCa 2b-hr cells were suppressed by testosterone [FIGS. 1 and 2].

[3] = system: MDA PCa 2b cells; conditions: 0.1 to 100 ng/mL testosterone, cells counted 4 days after addition, FIG. 2
Description: as §1

[4] = system: MDA PCa 2b-hr cells (highly androgen sensitive cell line); conditions: MDA PCa 2b-hr (cultured 61 weeks in androgen-free broth), 0.1 to 100 ng/mL testosterone, cells counted 4 days after addition, FIG. 2

`C[C@]12CC[C@H]3[C@@H](CCC4=CC(=O)CC[C@@]43C)[C@@H]1CC[C@@H]2O` [testosterone] was tested. Which cell growth [1] did it give?
The cell growth was “suppressed”.

What about the cell growth [2] of the same compound?
The cell growth was “promoted”.

What about the cell growth [3] of the same compound?
The cell growth was “promoted”.

And the cell growth [4]?
Its cell growth is “suppressed”.
